From patent US20090047246A1, “NOVEL INHIBITORS OF HEPATITIS C VIRUS REPLICATION” (InterMune, Inc., priority 2007, published 2009)

The compounds below were run against T1, HCV NS3 helicase (Hepatitis C virus genotype 1b, UniProt P26663) (assay: HCV Helicase Prompt FRET Assay (Example A)). Settings: HCV NS3 helicase; tables do not say whether Example A or Example B assay; read-out: IC50 Activity.
T1 construct: full-length NS3 (1-631), purified at Array BioPharma
Assay type: biochemical
Experimental: Test compounds were diluted to 2.5 mM by adding 6 uL of a 10 mM solution of the compound to 18 uL of DMSO in a 384-well Costar polypropylene plate. Serial dilutions (2.5×) were performed in the plate using DMSO as the diluent. 1 ul of solution was transferred from each well to a new 384-well Costar polypropylene plate.
A 2× mixture was prepared containing 100 nM helicase substrate, 500 nM helicase capture strand (CS), and 600 μM ATP by diluting stock solutions with assay buffer consisting of 25 mM MOPS, pH 7.0, and 1.5 mM MgCl2, 0.005% (v/v) Triton X-100. Stock helicase substrate was prepared by annealing a FAM-labeled oligonucleotide to a BHQ-1 labeled oligonucleotide, which were both custom synthesized and HPLC-purified at Biosearch Technologies. The FAM-labeled and BHQ-labeled oligonucleotide had the following sequences:
The helicase capture strand was custom synthesized and purified at Integrated DNA Technologies. The helicase capture strand had the following sequence:
The ATP solution was prepared in MilliQ water, pH adjusted to approximately 7 with NaOH. ATP powder was obtained from Sigma (A-7699). The concentration was determined via A260 (ext. coeff=15,400 M^−1cm^−1).
11.5 μL of assay buffer was added to all wells of the plate containing luL of test compound. 5 μL of the Compound/assay buffer mixture was added to a black polystyrene 384-well Proxiplate. A 4× Enzyme solution was prepared by diluting enzyme stock containing full-length NS3 (1-631), purified at Array BioPharma, with assay buffer. 5 μL of the 4× Enzyme solution was added to the Proxiplate and incubated for 5 minutes (for control wells lacking enzyme, assay buffer was used instead). 10 μL of 2× substrate/CS/ATP mixture was then added to all wells of Proxiplate. The final assay conditions included 50 nM Substrate, 250 nM Capture Strand, 300 μM ATP, 5 or 6 nM Enzyme, and 2% (v/v) DMSO. The reaction proceeded for 70 cycles (˜30 min.) on an Envision at room temperature. The plate was read using the Envision (top mirror=FITC; Excitation filter=FITC 485; Emission filter=FITC 535). The fluorescence intensity was recorded for a total of 30 minutes. The initial rates of the reactions was calculated and used to calculate IC50 values. The IC50 curve fitting was performed using either a 4-parameter or 5-parameter logistic equation.

T1 sequence (P26663 1027-1657): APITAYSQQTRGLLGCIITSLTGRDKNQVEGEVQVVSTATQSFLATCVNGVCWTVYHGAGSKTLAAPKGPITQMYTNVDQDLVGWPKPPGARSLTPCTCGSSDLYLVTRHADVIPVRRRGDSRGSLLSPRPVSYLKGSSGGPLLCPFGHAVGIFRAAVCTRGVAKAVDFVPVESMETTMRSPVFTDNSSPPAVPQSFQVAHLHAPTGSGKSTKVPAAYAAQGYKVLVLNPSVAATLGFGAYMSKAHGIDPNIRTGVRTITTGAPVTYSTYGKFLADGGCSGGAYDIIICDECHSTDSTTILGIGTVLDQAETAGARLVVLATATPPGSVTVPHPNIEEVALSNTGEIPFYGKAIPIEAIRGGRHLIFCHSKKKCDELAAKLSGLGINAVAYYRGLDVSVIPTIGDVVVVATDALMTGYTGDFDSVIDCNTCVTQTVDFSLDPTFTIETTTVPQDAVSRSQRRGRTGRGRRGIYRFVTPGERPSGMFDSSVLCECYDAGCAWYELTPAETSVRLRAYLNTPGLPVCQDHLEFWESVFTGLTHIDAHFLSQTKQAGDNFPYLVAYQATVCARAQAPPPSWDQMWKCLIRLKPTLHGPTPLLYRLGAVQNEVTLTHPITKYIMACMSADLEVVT

SMILES	IC50
Cc1cc([N+](=O)[O-])ccc1-n1c2ccccc2c2c(C(=O)O)cccc21 [Example 470]	> 50 µM
O=C(O)Cc1c(C(=O)Cc2ccc(F)cc2)n(Cc2ccccc2)c2ccccc12 [Example 259]	10 to 50 µM
O=C(O)Cc1cn(Cc2cccc(-c3cccnc3)c2)c2ccc(OCc3ccccc3)cc12 [Example 130]	10 to 50 µM
Cc1cc([N+](=O)[O-])ccc1-n1cc(C(=O)C(=O)O)c2cc(Br)ccc21 [Example 381]	10 to 50 µM
O=C(O)Cc1c(C(=O)c2ccc(-c3ccccc3)cc2)n(CC2CC2)c2ccccc12 [Example 218]	< 10 µM
O=C(O)C(=O)c1cn(Cc2csc3ccc(Cl)cc23)c2cc(N3CCCC(O)C3)ccc12 (centres unmarked) [Example 744]	< 10 µM
O=C(O)Cc1cn(Cc2ccc(Oc3cccc(Cl)c3)cc2)c2ccccc12 [Example 497]	< 10 µM
O=C(O)Cc1c(Cc2ccc(-c3ccccc3)cc2)[nH]c2ccccc12 [Example 295]	< 10 µM
O=C(O)Cc1cn(-c2ccc(N(CCO)Cc3ccccc3)cc2)c2ccccc12 [Example 168]	10 to 50 µM
CCN(Cc1ccccc1)c1ccc(-n2cc(CC(=O)OC)c3ccccc32)cc1 [Example 165]	10 to 50 µM
Cc1cc([N+](=O)[O-])ccc1-n1cc(C(C(=O)O)c2ccccc2)c2cc(Br)ccc21 (centres unmarked) [Example 388]	< 10 µM
CC(C)c1ccc(Cn2cc(C(NC(=O)c3c[nH]cn3)C(=O)O)c3ccccc32)cc1 (centres unmarked) [Example 422]	10 to 50 µM
O=C(O)Cc1cn(-c2ccc([N+](=O)[O-])cc2C2OCCO2)c2ccc(Br)cc12 [Example 339]	10 to 50 µM
CN(c1cccc(Cn2cc(CC(=O)O)c3ccccc32)c1)c1ccc(Cl)c(Cl)c1 [Example 541]	< 10 µM
Cc1cc([N+](=O)[O-])ccc1-n1cc(C(=O)C(=O)O)c2cc(Br)cnc21 [Example 332]	10 to 50 µM
COc1cccc(Cn2cc(CC(=O)O)c3cc(Br)ccc32)c1 [Example 111]	10 to 50 µM
O=C(O)Cc1cn(Cc2cccc(Oc3cc(C(F)(F)F)cc(C(F)(F)F)c3)c2)c2ccccc12 [Example 492]	< 10 µM
CC(=O)c1c(CC(=O)O)c2ccccc2n1-c1ccc(N(C)Cc2ccccc2)cc1 [Example 737]	10 to 50 µM
CC1CCN(C(=O)Cc2cn(Cc3cccc(OCc4ccccc4)c3)c3ccc(OCc4ccccc4)cc23)C1 (centres unmarked) [Example 191]	10 to 50 µM
O=C(O)Cc1c(C(=O)c2cccc(-c3ccccc3Cl)c2)[nH]c2ccccc12 [Example 234]	10 to 50 µM
NC(=O)c1cccc(-c2ccc(C(=O)c3[nH]c4ccccc4c3CC(=O)O)cc2)c1 [Example 263]	10 to 50 µM
Cc1cc([N+](=O)[O-])ccc1C(C(=O)O)C1CN(c2ccc([N+](=O)[O-])cc2C)c2ccc(Br)cc21 (centres unmarked) [Example 406]	10 to 50 µM
CC(C)c1ccc(Cn2c(C(=O)NC3CCN(C(=O)OC(C)(C)C)CC3)c(CC(=O)O)c3cc(Br)ccc32)cc1 [Example 436]	< 10 µM
O=C(O)Cc1cn(Cc2cccc(Oc3ccc(F)cc3)c2)c2ccccc12 [Example 474]	< 10 µM
CC(C)c1ccc(Cn2c(C(=O)NCc3ccc(S(N)(=O)=O)cc3)c(CC(=O)O)c3ccccc32)cc1 [Example 442]	10 to 50 µM
COc1ccc(Oc2ccc(Cn3cc(CC(=O)O)c4ccccc43)cc2)cc1OC [Example 511]	< 10 µM
CN(C)C(=O)c1cccc(-c2cccc(Cn3cc(CC(=O)O)c4cc(OCc5ccccc5)ccc43)c2)c1 [Example 117]	10 to 50 µM
CC(C)c1ccc(Cn2c(C(=O)Nc3ccccc3)c(CC(=O)O)c3cc(Br)ccc32)cc1 [Example 456]	< 10 µM
O=C(O)Cc1cn(Cc2cc(-c3ccccc3)no2)c2ccc(Br)cc12 [Example 138]	10 to 50 µM
Cc1cc([N+](=O)[O-])ccc1-n1cc(CC(=O)O)c2ccc(OCc3ccccc3)cc21 [Example 343]	10 to 50 µM

Continued, values first:

IC50	SMILES
< 10 µM	O=C(O)Cc1cn(Cc2ccc(Oc3ccc(Cl)cc3Cl)cc2)c2ccccc12 [Example 589]
< 10 µM	O=C(O)C(Cc1csc2ccc(Cl)cc12)c1cn(Cc2csc3ccc(Cl)cc23)c2cc(-c3ccco3)ccc12 (centres unmarked) [Example 361]
< 10 µM	O=C(O)Cc1c(C(=O)c2ccc(-c3ccccc3)cc2)n(Cc2csc3ccc(Cl)cc23)c2ccccc12 [Example 220]
< 10 µM	CCOC(=O)Cc1cn(Cc2ccc(Oc3cc(Cl)cc(Cl)c3)cc2)c2ccccc12 [Example 515]
> 50 µM	CCOC(=O)Cc1cn(Cc2ccc(Oc3ccc(Cl)cc3)cc2)c2cc(-c3cccc(OC(C)=O)c3)ccc12 [Example 605]
< 10 µM	Nc1cc(-c2ccc3c(CC(=O)O)cn(Cc4csc5ccc(Cl)cc45)c3c2)cc([N+](=O)[O-])c1 [Example 365]
< 10 µM	CCn1c(Cc2csc3ccc(Cl)cc23)c(CC(=O)O)c2ccc(OCc3ccccc3)cc21 [Example 370]
> 50 µM	CCOC(=O)Cc1c(-c2ccccc2)n(Cc2csc3ccc(Cl)cc23)c2ccccc12 [Example 412]
< 10 µM	O=C(O)Cc1cn(Cc2csc3ccc(Cl)cc23)c2c(Oc3ccc([N+](=O)[O-])cc3)cccc12 [Example 356]
10 to 50 µM	Oc1cc(Cc2cn(Cc3csc4ccc(Cl)cc34)c3ccccc23)n[nH]1 [Example 213]

Same assay, conditions: Table 21, compounds made using Scheme 28; read-out: IC50 Activity

IC50	SMILES
< 10 µM	CN(c1ccc(Cn2cc(CC(=O)O)c3ccccc32)cc1)c1cc(C(F)(F)F)ccc1C(F)(F)F [Example 581]
10 to 50 µM	CCOC(=O)Cc1cn(Cc2ccc(N(C)c3ccccc3F)cc2)c2ccccc12 [Example 583]
< 10 µM	COc1cccc(N(C)c2ccc(Cn3cc(CC(=O)O)c4ccccc43)cc2)c1 [Example 563]
< 10 µM	CN(c1ccc(Cn2cc(CC(=O)O)c3ccccc32)cc1)c1ccc(Cl)c(Cl)c1 [Example 575]
< 10 µM	CN(c1ccc(Cn2cc(CC(=O)O)c3ccccc32)cc1)c1ccccc1C(F)(F)F [Example 565]

Same assay, conditions: Table 23, compounds made using Scheme 30; read-out: IC50 Activity

IC50	SMILES
10 to 50 µM	O=C(O)Cc1cn(Cc2cccc(Oc3cc(Cl)ccc3Cl)c2)c2ccccc12 [Example 599]

Same assay, conditions: Table 25, compounds made using Scheme 32; read-out: IC50 Activity

IC50	SMILES
< 10 µM	CCOC(=O)Cc1cn(Cc2ccc(Oc3cccc(Cl)c3)cc2)c2cc(-c3cc(N)cc(N)c3)ccc12 [Example 612]

Same assay, conditions: Table 26, compounds made using Scheme 33; read-out: IC50 Activity

IC50	SMILES
> 50 µM	CCC(=O)Oc1cn(Cc2csc3ccc(Cl)cc23)c2cc(-c3ccccc3)ccc12 [Example 616]

Same assay, conditions: Table 27, compounds made using Scheme 34

IC50 Activity	SMILES
B or C	CCOC(=O)Cc1cn(Cc2c(C)sc3ccc(Cl)cc23)c2cc(-c3cc(N)cc(N)c3)ccc12 [Compound 617]

Same assay, conditions: Table 31, compounds made using Schemes 38-45; read-out: IC50 Activity

IC50	SMILES
< 10 µM	CC(C)Nc1cc(N)cc(-c2ccc3c(CC(=O)O)cn(Cc4csc5ccc(Cl)cc45)c3c2)c1 [Example 650]

Same assay, conditions: Table 32, compounds made using Schemes 46-49; read-out: IC50 Activity

IC50	SMILES
10 to 50 µM	CC(C)c1ccc(Cn2c(C(N)=O)c(CC(=O)O)c3ccccc32)cc1 [Example 665]
10 to 50 µM	NC(=O)c1sccc1-c1ccc2c(CC(=O)O)cn(Cc3csc4ccc(Cl)cc34)c2c1 [Example 661]
< 10 µM	CC(C)(C)OC(=O)Nc1ncc(-c2ccc3c(CC(=O)O)cn(Cc4csc5ccc(Cl)cc45)c3c2)s1 [Example 657]

Same assay, conditions: Table 34, compounds made using Schemes 51-52; read-out: IC50 Activity

IC50	SMILES
10 to 50 µM	CC(C)(C)ONC(=O)Cc1cn(Cc2csc3ccc(Cl)cc23)c2cc(-c3cc(N)cc(N)c3)ccc12 [Example 683]
10 to 50 µM	Nc1cc(N)cc(-c2ccc3c(CC(=O)NO)cn(Cc4csc5ccc(Cl)cc45)c3c2)c1 [Example 692]

Same assay, conditions: Table 35, compounds made using Scheme 53; read-out: IC50 Activity

IC50	SMILES
> 50 µM	CCOC(=O)Cc1cn(Cc2csc3ccc(F)cc23)c2cc(-c3cc([N+](=O)[O-])cc([N+](=O)[O-])c3)ccc12 [Example 792]
10 to 50 µM	Nc1cc(N)cc(-c2ccc3c(CC(=O)O)cn(Cc4csc5ccc(N)cc45)c3c2)c1 [Example 702]

Same assay, conditions: Table 36, compounds made using Scheme 54; read-out: IC50 Activity

IC50	SMILES
10 to 50 µM	N#Cc1ccc2c(CC(=O)O)cn(Cc3csc4ccc(Cl)cc34)c2c1 [Example 789]
< 10 µM	Nc1cc(N)cc(-c2ccc3c(CC(=O)O)cn(Cc4csc5cc(Cl)ccc45)c3c2)c1 [Example 728]
10 to 50 µM	Nc1cc(N)cc(-c2ccc3c(CC(=O)O)cn(Cc4csc5c(Cl)c(Cl)ccc45)c3c2)c1 [Example 724]

Same assay, conditions: Table 37, compounds made using Scheme 55; read-out: IC50 Activity

IC50	SMILES
10 to 50 µM	NC(=O)Nc1cccc(-c2ccc3c(CC(=O)O)cn(Cc4csc5ccc(Cl)cc45)c3c2)c1 [Example 767]
< 10 µM	Cc1sc2ccc(Cl)cc2c1Cn1cc(CC(=O)O)c2ccc(-c3ccccc3)cc21 [Example 770]
